Read-outs that look alike come from different tables or passages of the source.

In data set [1] the test system is liver cells. In words: Action to increase the glutathione levels in the liver cells (primary cultured hepatocytes). In kind it is cell-based, mice. The conditions noted are these: 1 mM, 100 = before addition. Here is the method:
Hepatocyte (sample) was prepared according to the method of Nakamura et al. published in the Protein, Nucleic Acid, and Enzyme, vol. 24, pp 55-76 (1981), partly adopting the method of Wang et al. reported in the In Vitro, vol. 21, pp 526-530 (1985). The liver of mice was purfused with 0.05% collagenase, and cells were collected by centrifugation, and were further centrifuged with percoll to collect the parenchymal hepatocytes. The obtained hepatocytes were dispersed in the Williams' medium E containing 10% bovine fetal serum, dexamethasone (10^-6 M), insulin (1 μg/ml), and antibiotic, and were inoculated into the culture plate at a density of 1×10^5 cells/0.2 ml/cm^2. After unattached cells were removed once 1.5 hours later, the cultivation was continued at 37° C. in an atomosphere of 5% CO2 -95% air. The compound of this invention was added to the culture system to a concentration of 1 mM to measure the time lapsed changes of the cellular glutathione level according to the method reported by Owens and Belcher, Biochem. J., vol. 94, pp 705-711 (1965) and Tietze, Anal. Biochem., vol. 27, pp 502-522 (1969). The similar measurements were also made without the addition of the compound for comparison.

In data set [2] the test system is ICR male mice. As to the kind of experiment: Action to increase tissue glutathione levels in mice. In kind it is in vivo. The conditions noted are these: 9-day old mice. How it is done: ICR male mice (9-day old) were subcutaneously given 2.5 mmol/kg of the compound of this invention (r-Glu-Cys OET) or control compounds (glutathione (GSH), γ-L-glutamyl-L-cysteine (r-Glu-Cys)) four times at 2.5-hour intervals. The mice were dissected and their livers and kidneys were removed before the administration and every 2.5 hour after the administration to have their glutathione (GSH) level determined. […]

Data set [3] concerns ICR male mice. As to the kind of experiment: Recovery of tissue glutathione levels in mice pretreated with L-buthionine sulfoximine. It is filed as in vivo. The conditions noted are these: 2.5 mmol/kg s.c. 4 times, day after L-buthionine sulfoximine 4 mmol/kg x4. How it is done: ICR male mice (9-day old) were given L-buthionine sulfoximine in dosage of 4 mmol/kg four times at an interval of 2.5 hours to decrease their tissue glutathione levels beforehand. The next day, the mice were given subcutaneously 2.5 mmol/kg of the present compound or saline 4 times at an interval of 2.5 hours. Glutathione monoethyl ester (GSHOET) was also given likewise in dosage of 2.5 mmol/kg as a control. The contents of glutathione in the livers and kidneys were measured according to the methods described in Example 6.

The subject of data set [4] is ICR male mice. In words: Mitigation of decrease of tissue glutathione levels, compound and L-buthionine sulfoximine given alternately to mice. It is filed as in vivo. Conditions: 2.5 mmol/kg s.c. alternately with L-buthionine sulfoximine 4 mmol/kg; versus saline. Here is the method: The compound of this invention was administered in the same way as Example 6, and L-buthionine sulfoximine (BSO) was administered likewise in dosage of 4 mmol/kg one hour after every administration of said compound. The contents of glutathione in the livers and kedneys were measured according to the methods described in Example 6 every 2.5 hours after the initial administration of the present compound. As controls, saline was administered in place of the present compound to take the similar measurements. FIGS. 2A and 2B shown the results.

For data set [5], the system named is liver cells. As to the kind of experiment: Mitigation of decrease in glutathione levels in liver cells on coexistence with D,L-buthionine sulfoximine. In kind it is cell-based, mice. Conditions: 13 hours later, 100 = before addition. Here is the method: The cultured liver cells were cultured for 13 hours after the addition of D,L-buthionine sulfoximine to the concentration of 0.3 mM and the present compound to the concentration of 1 mM and then the levels of cellular glutathione were measured. The similar measurements were made on the controls in which nothing was added and in which D,L-buthionine sulfoximine only was added.

The subject of data set [6] is liver cells. In words: Recovery of glutathione levels of liver cells after carbon tetrachloride treatment. The conditions noted are these: 100 = before treatment. It is filed as cell-based, mice. How it is done: After carbon tetrachloride was added to the cultured liver cells at a concentration of 0.5 μl/ml, culture was continued for 1 hour. […] One hour later, the change of the cellular glutathione level was measured.

The subject of data set [7] is experimentally developed cataract induced by L-buthionine sulfoximine. In words: Protective effect on experimental cataract induced by L-buthionine sulfoximine. Conditions: 16th day after birth. It is filed as in vivo, mice. An excerpt: The cataract development rate in the table means the ratio of the experimental animals developing cataract to all the animals examined (11 to 12 mice per group) and the cataractous eye rate means the ratio of cataractous eyes to the whole number of eyes examined.

Data set [8] concerns ICR male mice. In words: Detoxification of renal toxicity induced by cisplatin (BUN). It is filed as in vivo. Conditions: cisplatin 20 mg/kg i.p. + compound 2.5 mmol/kg i.p. 4 times a day for 5 days; one week after cisplatin. An excerpt:
The control groups were given saline instead of the present compound.

A further data set deals with mouse newborns. The conditions noted are these: for Effect on increment of animals' body weight suppressed by the toxicity of BSO: mouse, in vivo; for Surviving rate: after the ending of administration. How it is done:
Experimental cataract was prepared according to the method of Calvin et al., Science, vol. 233, pp 553-555 (1986). More particularly, L-buthioninesulfoximine was administered subcutaneously to the ICR male mice at a dose of 4 mmol/kg for 3 successive days from the 9th day to the 11th day after birth every 2.5 hours 4 times a day to cause cataract. The rate of cataractgenesis was determined on the 16th day after birth. The test compounds were also given subcutaneously for 3 days from the 9th day to the 11th day after birth 4 times a day 1 hour before the administration of L-buthionine sulfoximine and thereafter the test compounds studied only were subcutaneously given 4 times a day at an interval of 2.5 hours on the consecutive 12th and 13th days after birth and the protective effect of the test compound on cataract formation was examined on the 16th day after birth. As the control compounds, glutathione, glutathione monoethyl ester, and γ-L-glutamyl-L-cysteine were also examined.
Acute toxicity of the present compound was examined where it is administered according to the schedule of Example 9 and compared with there of controls, glutathione, glutathione monoethyl ester, and γ-L-glutamyl-L-cysteine.

Data set [9] deals with liver cells. As to the kind of experiment: Recovery of cellular glutathione levels after decrease by D,L-buthionine sulfoximine and removal of the inhibitor. It is filed as cell-based, mice. Conditions: untreated = 100. How it is done: (§1) D, L-buthionine sulfoximine was added to the cultured liver cells to a density of 0.5 mM and cultivation was carried on for 16 hours. […] The changes of cellular glutathione levels were measured at that time. Thereafter the compounds studied were removed from the respective cultures whose culture media were then replaced with new ones containing carbon tetrachloride at a density of 0.5 μl/ml. After 1-hour cultivation, the action to prevent the necrosis of liver cells was examined by measuring the GPT activity of the respective culture supernatants and Trypan Blue staining test.
(§2) In Table 3, the changes of cellular glutathione levels are expressed by relative values based on the untreated value set at 100 and the action to prevent the necrosis of liver cells is indicated by the GPT activity of the culture supernatant and survival rate.

In data set [10] the test system is liver cells. As to the kind of experiment: Prevention of necrosis of liver cells by carbon tetrachloride (GPT activity, Trypan Blue staining). Conditions: 1 mM for 2 hours after D,L-buthionine sulfoximine removal, then carbon tetrachloride 0.5 μl/ml for 1 hour; for Survival rate: Trypan Blue. In kind it is cell-based, mice. Here is the method:
as §1, §2

The conditions of data set [11]: cited from earlier work.
[12] abbreviates: 2.5 mmol/kg subcutaneously four times at 2.5-hour intervals.
The mark [13] stands for this setting: L-buthionine sulfoximine + compound 1.25 mmol/kg s.c.
[14] abbreviates: L-buthionine sulfoximine + compound 2.50 mmol/kg s.c.
[15] abbreviates: 1 mM added for 2 hours after removal of D,L-buthionine sulfoximine (0.5 mM, 16 hours).
[16] abbreviates: L-buthionine sulfoximine + compound 1.25 mmol/kg.
The mark [17] stands for this setting: L-buthionine sulfoximine + compound 2.5 mmol/kg.
Setting [18] is: L-buthionine sulfoximine 4 mmol/kg alone.

As to `CCOC(=O)[C@H](CS)NC(=O)CC[C@H](N)C(=O)O` [γ-L-glutamyl-L-cysteine ethyl ester], the “Cellular glutathione level (relative value)” value in the data set with liver cells [1] (0.5 hours) came to 140. Further, in the data set with liver cells [1] (1 hour), the “Cellular glutathione level (relative value)” value is 170. The “Cellular glutathione level (relative value)” value in the data set with liver cells [1] (2 hours) is recorded as 200. Moreover, in the data set with ICR male mice [2] (setting [12]), the “Tissue glutathione level, kidney (FIG. 1B)” value is “far more excellent effect than glutathione and γ-L-glutamyl-L-cysteine in increasing the tissue glutathione levels”; the “Tissue glutathione level, liver (FIG. 1A)” value was “far more excellent effect than glutathione and γ-L-glutamyl-L-cysteine in increasing the tissue glutathione levels”. The “SH levels in eyeballs, DTNB method (FIG. 1C)” value in the data set with ICR male mice [2] (5 mmol/kg) is given as “improve the SH levels remarkably”. Also, in the data set on ICR male mice [3], the “Recovery of tissue glutathione level, kidney (FIG. 3B)” value is reported as “far more excellent effect in making the tissular glutathion level recover to the normal level as compared with glutathione monoethyl ester” and the “Recovery of tissue glutathione level, liver (FIG. 3A)” value is listed as “same effectiveness as glutathione monoethyl ester”. In the data set on ICR male mice [4], the “Tissue glutathione level, kidney (FIG. 2B)” value was “mitigate the decrease of tissue glutathione levels” and the “Tissue glutathione level, liver (FIG. 2A)” value is on record as “mitigate the decrease of tissue glutathione levels”. Besides, in the data set on liver cells [5] (coexistence of D,L-buthionine sulfoximine 0.3 mM and compound 1 mM), the “Cellular glutathione level (relative value)” value stood at 30. The “Cellular glutathione level (relative value)” value in the data set with liver cells [6] (1 mM added after removal of carbon tetrachloride, one hour later) is reported as 67. For the same compound, in data set [7] (setting [13]), the Cataract development rate was found to be 50.0% and the Cataractous eye rate is reported as 41.7%. Besides, in [7] (setting [14]), the Cataract development rate was determined as 0% and the Cataractous eye rate came to 0%. Moreover, the BUN in the data set with ICR male mice [8] was determined as 35.7 mg/dL. Further, the “Effect on increment of animals' body weight suppressed by the toxicity of BSO” value (shortened to “Effect on increment”) with mouse newborns is given as “showed an effect to mitegate suppressed increment of animals' body weight”. Further, the “Cellular glutathion level (relative value)” value in the data set with liver cells [9] (setting [15]) was 50. Also, in the data set with liver cells [10], the “GPT activity of culture supernatant” value turned out to be 3 until/ml and the Survival rate was 100%.
For the compound `N[C@@H](CCC(=O)N[C@@H](CS)C(=O)NCC(=O)O)C(=O)O` [Glutathione, glutathione], the “half life in blood” value in data set [11] was “several minutes”. In addition, in [7] (setting [13]), the Cataract development rate is given as 75.0% and the Cataractous eye rate is on record as 70.8%. Further, in the data set with mouse newborns (setting [16]), the Surviving rate stood at 100%. Besides, in the data set on mouse newborns (setting [17]), the Surviving rate was determined as 50%. For the same compound, the “Effect on increment” value in the data set with mouse newborns is “such effect was not seen”. Further, the “Cellular glutathion level (relative value)” value in the data set with liver cells [9] (setting [15]) was 10. Besides, in the data set on liver cells [10], the “GPT activity of culture supernatant” value was found to be 60 until/ml and the Survival rate is on record as 10%.
Regarding `N[C@@H](CCC(=O)N[C@@H](CS)C(=O)O)C(=O)O` [γ-L-glutamyl-L-cysteine], in [7] (setting [13]), the Cataract development rate was found to be 66.7% and the Cataractous eye rate turned out to be 77.8%. The Surviving rate in the data set with mouse newborns (setting [16]) is on record as 75%. In the data set with mouse newborns (setting [17]), the Surviving rate was 0%. In addition, the “Effect on increment” value with mouse newborns is given as “such effect was not seen”. In the data set on liver cells [9] (setting [15]), the “Cellular glutathion level (relative value)” value came out at 10. Moreover, in the data set with liver cells [10], the “GPT activity of culture supernatant” value came out at 60 until/ml and the Survival rate was 10%.
As to `CCCCS(=N)(=O)CCC(N)C(=O)O` [D,L-buthionine sulfoximine, D,L-buthionine-sulfoximine, reference compound], the “Cellular glutathione level (relative value)” value in the data set on liver cells [5] (D,L-buthionine sulfoximine 0.3 mM alone) stood at 17. In the data set on liver cells [9] (D,L-buthionine sulfoximine 0.5 mM, 16 hours), the “Cellular glutathion level (relative value)” value is 1.
Regarding `CCOC(=O)[C@H](CSSC[C@H](NC(=O)CC[C@H](N)C(=O)O)C(=O)OCC)NC(=O)CC[C@H](N)C(=O)O` [γ-L-glutamyl-L-cystein ethyl ester of oxidized type dimer], in [7] (setting [14]), the Cataract development rate turned out to be 30.0% and the Cataractous eye rate is 35.0%. In the data set on mouse newborns (setting [17]), the Surviving rate is 100%.
In data set [7] (setting [18]), `CCCCS(=N)(=O)CCC(N)C(=O)O` [L-buthionine sulfoximine, reference compound] had a Cataract development rate of 91.7% and a Cataractous eye rate of 91.7%. In the data set on mouse newborns (setting [18]), this compound had a Surviving rate of 100%.
In the case of `ClC(Cl)(Cl)Cl` [carbon tetrachlodie, carbon tetrachloride, reference compound], the “Cellular glutathione level (relative value)” value in the data set with liver cells [6] (after carbon tetrachloride 0.5 μl/ml, 1 hour) is 33.

The record behind these values is patent US4927808A, “γ-L-glutamyl-L-cysteine ethyl ester and pharmaceutical compositions containing the same as an effective ingredient” (Teijin Limited, priority 1986, dated 1990).
